≈ marks a conversion by molar mass, not a printed value.
Columns and labels:
[1] = tested on: C. ramosum; test: In vitro antibacterial activity, MIC (standard strain); assay type: cell-based; settings: Thomasclavelia ramosa
[2] = tested on: S. faecalis 402; test: In vitro antibacterial activity, MIC (clinical isolates); assay type: cell-based; settings: Enterococcus faecalis, 402
[3] = tested on: Proteus vulgaris IFO 3167; test: In vitro antibacterial activity, MIC (standard strain); assay type: cell-based; settings: Proteus vulgaris, IFO3167
[4] = tested on: B. fragilis 25285; test: as above; assay type: cell-based, Bacteroides fragilis; settings: Bacteroides fragilis, 25285
[5] = tested on: S. agalactiae 4368; test: In vitro antibacterial activity, MIC (clinical isolates); assay type: cell-based; settings: Streptococcus agalactiae, 4368
[6] = tested on: S. pyogenes 3107; test: as above; assay type: cell-based; settings: Streptococcus pyogenes, 3107
[7] = tested on: Staphylococcus aureus 209 P; test: In vitro antibacterial activity, MIC (standard strain); assay type: cell-based; settings: Staphylococcus aureus, 209P
[8] = tested on: S. agalactiae 4468; test: In vitro antibacterial activity, MIC (clinical isolates); assay type: cell-based; settings: Streptococcus agalactiae, 4468
[9] = tested on: P. aeruginosa IFO 12689; test: In vitro antibacterial activity, MIC (standard strain); assay type: cell-based, Pseudomonas aeruginosa; settings: Pseudomonas aeruginosa, IFO12689
[10] = tested on: Acinetobacter anitratus IID 876; test: as above; assay type: cell-based; settings: Acinetobacter calcoaceticus, IID876
[11] = tested on: Serratia marcescens IID 618; test: as above; assay type: cell-based; settings: Serratia marcescens, IID618
[12] = tested on: Citrobacter freundii IID 976; test: as above; assay type: cell-based; settings: Citrobacter freundii, IID976
[13] = tested on: Shigella sonnei IID 969; test: as above; assay type: cell-based; settings: IID969, 10^6 cells/ml
Experimental: Experiment-1 In vitro antibacterial activity
The in vitro antibacterial activity against gram-positive and gram-negative bacteria has been investivated.
The minimum inhibitory concentration (MIC) was determined in accordance with the method recommended by Japan Society of Chemotherapy.

[14] = tested on: Fusobacterium varium KYA 8501; test: as above; assay type: cell-based; settings: Fusobacterium varium, KYA8501
[15] = tested on: Enterobacter cloacae IID 977; test: as above; assay type: cell-based; settings: Enterobacter cloacae, IID977
[16] = tested on: S. marcescens GN 7577; test: as above; assay type: cell-based; settings: Serratia marcescens, GN7577
[17] = tested on: S. faecalis 214; test: In vitro antibacterial activity, MIC (clinical isolates); assay type: cell-based; settings: Enterococcus faecalis, 214
[18] = tested on: S. epidermidis IID 866; test: In vitro antibacterial activity, MIC (standard strain); assay type: cell-based; settings: Staphylococcus epidermidis, IID866
[19] = tested on: S. pyogenes 4340; test: In vitro antibacterial activity, MIC (clinical isolates); assay type: cell-based; settings: Streptococcus pyogenes, 4340
[20] = tested on: S. pneumoniae 2950; test: as above; assay type: cell-based; settings: Streptococcus pneumoniae, 2950
[21] = tested on: Bacillus subtilis PCI 219; test: In vitro antibacterial activity, MIC (standard strain); assay type: cell-based; settings: Bacillus subtilis, PCI219
[22] = tested on: Alcaligenes faecalis 0104002; test: as above; assay type: cell-based; settings: Alcaligenes faecalis, 0104002
[23] = tested on: S. agalactiae 4394; test: In vitro antibacterial activity, MIC (clinical isolates); assay type: cell-based; settings: Streptococcus agalactiae, 4394
[24] = tested on: S. faecalis IID 682; test: In vitro antibacterial activity, MIC (standard strain); assay type: cell-based; settings: Enterococcus faecalis, IID682
[25] = tested on: S. agalactiae 4049; test: In vitro antibacterial activity, MIC (clinical isolates); assay type: cell-based; settings: Streptococcus agalactiae, 4049
[26] = tested on: Clostridium perfringens KYA 13123; test: microbe, parasite or virus in culture; assay type: cell-based; settings: KYA13123
[27] = tested on: S. agalactiae 4470; test: In vitro antibacterial activity, MIC (clinical isolates); assay type: cell-based; settings: Streptococcus agalactiae, 4470
[28] = tested on: Escherichia coli NIHJ JC-2; test: In vitro antibacterial activity, MIC (standard strain); assay type: cell-based; settings: Escherichia coli, NIHJJC2
[29] = tested on: Salmonella entritidis IID 604; test: as above; assay type: cell-based; settings: Salmonella, IID604
[30] = tested on: E. coli ATCC 10536; test: as above; assay type: cell-based; settings: Escherichia coli, ATCC10536
[31] = tested on: K. pneumoniae 1-220S; test: as above; assay type: cell-based; settings: Klebsiella pneumoniae, 1220S
[32] = tested on: B. fragilis 0558; test: as above; assay type: cell-based, Bacteroides fragilis; settings: Bacteroides fragilis, 0558
[33] = tested on: Klebsiella pneumoniae KY(GN)6445; test: as above; assay type: cell-based; settings: Klebsiella pneumoniae
[34] = tested on: Bacteroides fragilis GM 7000; test: as above; assay type: cell-based; settings: Bacteroides fragilis, GM7000
[35] = tested on: S. aureus IID 670 (Terajima); test: as above; assay type: cell-based, Staphylococcus aureus; settings: Staphylococcus aureus, IID670
[36] = tested on: S. pneumoniae 2054; test: In vitro antibacterial activity, MIC (clinical isolates); assay type: cell-based; settings: Streptococcus pneumoniae, 2054
[37] = tested on: P. mirabilis IID 994; test: In vitro antibacterial activity, MIC (standard strain); assay type: cell-based; settings: Proteus mirabilis, IID994
[38] = tested on: Pseudomonas aeruginosa V-1; test: as above; assay type: cell-based; settings: Pseudomonas aeruginosa, V1
[39] = tested on: S. faecalis 401; test: In vitro antibacterial activity, MIC (clinical isolates); assay type: cell-based; settings: Enterococcus faecalis, 401
[40] = tested on: S. pyogenes 4372; test: as above; assay type: cell-based; settings: Streptococcus pyogenes, 4372
[41] = tested on: Morganella morganii IID 602; test: In vitro antibacterial activity, MIC (standard strain); assay type: cell-based; settings: Morganella morganii, IID602
[42] = tested on: S. agalactiae 4342; test: In vitro antibacterial activity, MIC (clinical isolates); assay type: cell-based; settings: Streptococcus agalactiae, 4342
[43] = tested on: Yersinia enterocolitica IID 981; test: In vitro antibacterial activity, MIC (standard strain); assay type: cell-based; settings: Yersinia enterocolitica, IID981
[44] = tested on: S. pneumoniae 3227; test: In vitro antibacterial activity, MIC (clinical isolates); assay type: cell-based; settings: Streptococcus pneumoniae, 3227
[45] = tested on: S. pyogenes 3130; test: as above; assay type: cell-based; settings: Streptococcus pyogenes
[46] = tested on: S. aureus Smith; test: In vitro antibacterial activity, MIC (standard strain); assay type: cell-based, Staphylococcus aureus; settings: Staphylococcus aureus; S. aureus Smith; 10^6 cells/ml; standard strain
[47] = tested on: Streptococcus pyogenes S-8; test: as above; assay type: cell-based; settings: Streptococcus pyogenes, S8
[48] = tested on: S. pneumoniae 15; test: In vitro antibacterial activity, MIC (clinical isolates); assay type: cell-based; settings: Streptococcus pneumoniae, 15
[49] = tested on: S. pneumoniae IID 552; test: In vitro antibacterial activity, MIC (standard strain); assay type: cell-based; settings: Streptococcus pneumoniae, IID552
[50] = tested on: P. aeruginosa IID 1210; test: as above; assay type: cell-based; settings: Pseudomonas aeruginosa, IID1210
[51] = tested on: S. pyogenes IID 692; test: as above; assay type: cell-based; settings: Streptococcus pyogenes, IID692
[52] = tested on: E. coli ML 4707; test: as above; assay type: cell-based; settings: Escherichia coli, ML4707
[53] = tested on: S. faecalis 49; test: In vitro antibacterial activity, MIC (clinical isolates); assay type: cell-based; settings: Enterococcus faecalis, 49
[54] = tested on: S. pyogenes 3102; test: as above; assay type: cell-based; settings: Streptococcus pyogenes, 3102
[55] = tested on: M. pneumoniae Mac.; test: In vitro antibacterial activity against Mycoplasma, MIC; assay type: cell-based; settings: Mycoplasmoides pneumoniae, 120 h
Source text: Experiment-3 In vitro antibacterial activity against Mycoplasma

How did the MIC [1] turn out when `NCC1CCN(c2cc3c(cc2F)c(=O)c(C(=O)O)cn3C2CC2)C1` (stereo not drawn) [Example 6, 7-(3-Aminomethyl-l-pyrrolidinyl)-l-cyclopropyl-6-fluoro-l,4-dihydro-4-oxo-3-quinolinecarboxylic acid] was run?
The MIC was 12.5 µg/mL (≈ 36.2 µM).

What about the MIC [2] of the same compound?
The MIC was 0.39 µg/mL (≈ 1.13 µM).

And the MIC [3]?
Its MIC is 0.05 µg/mL (≈ 0.145 µM).

And the MIC [4]?
Its MIC is 12.5 µg/mL (≈ 36.2 µM).

And the MIC [5]?
Its MIC is 0.2 µg/mL (≈ 0.579 µM).

And the MIC [6]?
The MIC was 0.05 µg/mL (≈ 0.145 µM).

What about the MIC [7] of the same compound?
Its MIC is 0.05 µg/mL (≈ 0.145 µM).

And the MIC [8]?
Its MIC is 0.2 µg/mL (≈ 0.579 µM).

And the MIC [9]?
Its MIC is 0.78 µg/mL (≈ 2.26 µM).

And the MIC [10]?
Its MIC is 0.78 µg/mL (≈ 2.26 µM).

And the MIC [11]?
The MIC was 0.39 µg/mL (≈ 1.13 µM).

What about the MIC [12] of the same compound?
The MIC was 0.1 µg/mL (≈ 0.29 µM).

And the MIC [13]?
Its MIC is 0.05 µg/mL (≈ 0.145 µM).

And the MIC [14]?
Its MIC is 25 µg/mL (≈ 72.4 µM).

And the MIC [15]?
The MIC was 0.2 µg/mL (≈ 0.579 µM).

And the MIC [16]?
The MIC was 3.13 µg/mL (≈ 9.06 µM).

What about the MIC [17] of the same compound?
The MIC was 0.39 µg/mL (≈ 1.13 µM).

And the MIC [18]?
Its MIC is 0.05 µg/mL (≈ 0.145 µM).

And the MIC [19]?
Its MIC is 0.05 µg/mL (≈ 0.145 µM).

And the MIC [20]?
The MIC was 0.2 µg/mL (≈ 0.579 µM).

And the MIC [21]?
Its MIC is 0.05 µg/mL (≈ 0.145 µM).

And the MIC [22]?
The MIC was 1.56 µg/mL (≈ 4.52 µM).

And the MIC [23]?
Its MIC is 0.39 µg/mL (≈ 1.13 µM).

And the MIC [24]?
Its MIC is 0.39 µg/mL (≈ 1.13 µM).

And the MIC [25]?
Its MIC is 0.39 µg/mL (≈ 1.13 µM).

And the MIC [26]?
The MIC was 3.13 µg/mL (≈ 9.06 µM).

And the MIC [27]?
The MIC was 0.2 µg/mL (≈ 0.579 µM).

What about the MIC [28] of the same compound?
The MIC was 0.05 µg/mL (≈ 0.145 µM).

And the MIC [29]?
The MIC was 0.2 µg/mL (≈ 0.579 µM).

And the MIC [30]?
Its MIC is 0.05 µg/mL (≈ 0.145 µM).

And the MIC [31]?
Its MIC is 0.2 µg/mL (≈ 0.579 µM).

What about the MIC [32] of the same compound?
The MIC was 6.25 µg/mL (≈ 18.1 µM).

What about the MIC [33] of the same compound?
The MIC was 0.1 µg/mL (≈ 0.29 µM).

And the MIC [34]?
Its MIC is 6.25 µg/mL (≈ 18.1 µM).

And the MIC [35]?
The MIC was 0.05 µg/mL (≈ 0.145 µM).

And the MIC [36]?
Its MIC is 0.39 µg/mL (≈ 1.13 µM).

What about the MIC [37] of the same compound?
The MIC was 0.1 µg/mL (≈ 0.29 µM).

And the MIC [38]?
The MIC was 0.78 µg/mL (≈ 2.26 µM).

What about the MIC [39] of the same compound?
Its MIC is 0.39 µg/mL (≈ 1.13 µM).

And the MIC [40]?
The MIC was 0.1 µg/mL (≈ 0.29 µM).

What about the MIC [41] of the same compound?
The MIC was 0.39 µg/mL (≈ 1.13 µM).

And the MIC [42]?
Its MIC is 0.2 µg/mL (≈ 0.579 µM).

What about the MIC [43] of the same compound?
The MIC was 0.2 µg/mL (≈ 0.579 µM).

What about the MIC [44] of the same compound?
The MIC was 0.2 µg/mL (≈ 0.579 µM).

What about the MIC [45] of the same compound?
The MIC was 0.05 µg/mL (≈ 0.145 µM).

And the MIC [46]?
The MIC was 0.2 µg/mL (≈ 0.579 µM).

What about the MIC [47] of the same compound?
The MIC was 0.1 µg/mL (≈ 0.29 µM).

And the MIC [48]?
The MIC was 0.2 µg/mL (≈ 0.579 µM).

And the MIC [49]?
Its MIC is 0.1 µg/mL (≈ 0.29 µM).

What about the MIC [50] of the same compound?
Its MIC is 3.13 µg/mL (≈ 9.06 µM).

And the MIC [51]?
The MIC was 0.2 µg/mL (≈ 0.579 µM).

And the MIC [52]?
The MIC was 0.05 µg/mL (≈ 0.145 µM).

What about the MIC [53] of the same compound?
Its MIC is 0.39 µg/mL (≈ 1.13 µM).

What about the MIC [54] of the same compound?
Its MIC is 0.05 µg/mL (≈ 0.145 µM).

For `CN(C)[C@@H]1C(O)=C(C(N)=O)C(=O)[C@@]2(O)C(O)=C3C(=O)c4c(O)cccc4[C@@](C)(O)[C@H]3C[C@@H]12` [TC, Tetracycline, reference compound], which MIC [55] is on record?
The MIC was 0.78 µg/mL (≈ 1.76 µM).
